The record followed here is patent US20030105043A1, “Apoptosis-inducing ribozymes” (priority 2000, published 2003).

One data set has as its system rat MT-I cRNA. The data set can be described thus: cell-free ribozyme cleavage of labeled rat MT-I cRNA. Format: biochemical. The conditions noted are these: for cleavage activity on rat MT-I cRNA: cell-free, excess unlabeled ribozyme, 37° C., 16 hours. From the text: (§1) Bluescript plasmids containing the rat MT cDNA (pBSMT-I and pBSMT-2) were constructed as described above. A plasmid containing the mouse MT-I (pSP-MT-I) and a second plasmid (SDF 102.C1) containing MT-II cDNA (Durnam et al., 1980, Proc. Natl. Acad. Sci. USA 77:6511-6515) were linearized with HindIII and in vitro transcribed into labeled MT cRNAs with [α-32P]UTP, T3 RNA polymerase (Promega, Madison, Wis.), and the Maxiscript In Vitro Transcription Kit (Ambion, Inc, Austin, Tex.). Ribozymes were generated as unlabeled molecules from pRz1-2 and pRz4-9 using either the T3 or T7 promoter of the pClneo vectors, and unlabeled nucleoside triphosphates.
(§2) To test ribozyme activity, radiolabeled rat metallothionein cRNAs were synthesized by in vitro transcription from linearized plasmids and incubated with an excess of unlabeled ribozymes at 37° C. for 16 hours. The enzymatic activity was terminated with an equal volume of stop buffer. After denaturing at 95° C. for 2 minutes, the cleavage products were separated in a 6% polyacrylamide/8M urea gel, dried and exposed to X-ray film to obtain autoradiograms. The uncut rat MT-I (poly A) and MT-II (poly A) molecules were 435 nucleotides and 350 nucleotides, respectively. Rz1-2-mediated cleavage fragments of rat MT-I(poly A) were 360 nucleotides and 115 nucleotides in length. The cleavage fragments produced by Rz4-9 activity on MT-II(polyA) were 260 nucleotides and 90 nucleotides in length.
(§3) Initial experiments were designed to determine effective and linear catalytic temperature ranges for Rz1-2 and Rz4-9. A ribozyme and a labeled substrate were mixed in a 1:1 molar ratio in a 10 μL reaction mixture composed of 40 mM Tris-HCl (pH 7.5) and 20 mM MgCl2 (previously determined to be optimal for cleavage activity). The reaction mixture was denatured for 2 minutes at 95° C. and then snapcooled on ice for 5 minutes. Catalytic reactions were conducted at 25° C., 37° C., and 50° C. for 1, 3, or 16 hours. […] An excess of unlabeled anti-MT Rzs (Rz1-2 and Rz4-9) and their corresponding mutants (Rz2-6 and Rz3-3) were mixed with labeled rat or mouse MT-I or MT-II cRNA and incubated at 37° C. for 16 hours. At the end of these experiments, all catalytic reactions were terminated with an equal volume of stop buffer (10 mM EDTA, 90% formamide, 0.1% bromophenol blue, and 0.1% xylene cyanol). After denaturing at 95° C. for 2 minutes, the cleavage products were separated in a 6% polyacrylamide/8M urea gel, dried, and exposed to X-ray film to obtain autoradiograms. The sizes of the uncut rat MT-I (poly A) and MT-II (poly A) molecules were 435 nucleotides and 350 nucleotides, respectively. Rz1-2-mediated cleavage fragments of rat MT-I(poly A) were of 360 nucleotides and 115 nucleotides in length and those produced by Rz4-9 activity on MT-II(polyA) were 260 nucleotides and 90 nucleotides. Incubation with the mutant Rzs, Rz2-6 or Rz3-3, produced no products.
(§4) Hammerhead ribozymes were tested for specific endonuclease activity under cell-free conditions. In vitro transcription from pBSMT-I and pBSMT-II using 2.5 μg HindIII linearized plasmid and T3 RNA polymerase yielded 5 μg of rat MT-I and MT-II cRNA. In parallel, mouse MT-I and MT-II cRNA were generated from plasmids containing mouse MT sequences (pSP-MT-I). These molecules containing the entire metallothionein coding region and a poly (A) tail 435 nucleotides (rat MT-I cRNA), 350 nucleotides (rat MT-II cRNA), 380 nucleotides ([…]) and 460 nucleotides ([…]) in length. They were used as substrate for the ribozyme reactions. […] Similar sequence specificity data were obtained for mouse metallothionein cRNAs. All cleavage products were of the predicted sizes.

The subject of the next data set is rat MT-II cRNA. Briefly: cell-free ribozyme cleavage of labeled rat MT-II cRNA. As to conditions: for cleavage activity on rat MT-II cRNA: cell-free, excess unlabeled ribozyme, 37° C., 16 hours. Format: biochemical.
From the text: as §1, §2, §3, §4

The mark [1] stands for this setting: cell-free cleavage, 1:1 molar ratio.

In the case of “Rz1-2: hammerhead ribozyme, SEQ ID NO:6, designed to cleave mouse and rat MT-I mRNA (GCGCCUUUGCACUGAUGAGUCCGUGAGGACGAAACACAGCCCU; listed as RNA, chemistry not given here)”, in the data set with rat MT-I cRNA (cell-free cleavage), the “optimal Mg^2+ for ribozyme activity” value stood at 20 mM, the “period over which ribozyme remained active” value came to 16 h and the “temperature at which ribozyme is most effective” value was determined as 37 °C. The “temperature range over which ribozyme is active” value in the data set on rat MT-I cRNA (setting [1]) was 25-50 °C. For the same substance, in the data set on rat MT-I cRNA, the “cleavage activity on rat MT-I cRNA” value is reported as “active”. In addition, the “cleavage activity on rat MT-II cRNA” value in the data set with rat MT-II cRNA is “no activity”.

As to “Rz4-9: hammerhead ribozyme, SEQ ID NO:7, designed to cleave MT-II mRNA (CCUCUUUGCACUGAUGAGUCCGUGAGGACGAAAUGCAGCCCU; listed as RNA, chemistry not fully specified)”, in the data set on rat MT-I cRNA, the “cleavage activity on rat MT-I cRNA” value is reported as “did not mediate rat MT-I cRNA cleavage”. Moreover, in the data set on rat MT-II cRNA (cell-free cleavage), the “optimal Mg^2+ for ribozyme activity” value amounted to 20 mM, the “period over which ribozyme remained active” value was 16 h and the “temperature at which ribozyme is most effective” value was 37 °C. Moreover, the “temperature range over which ribozyme is active” value in the data set with rat MT-II cRNA (setting [1]) is 25-50 °C. In addition, the “cleavage activity on rat MT-II cRNA” value with rat MT-II cRNA is listed as “cut only rat MT-II cRNAs”.
